Measurements from patent US20150119344A1, “COMPOSITIONS AND METHODS FOR THE TREATMENT OF CARDIOVASCULAR AND NEUROLOGICAL DISEASES” (priority 2012, published 2015).

Experiment: Water solubility: distilled water added to a weighed amount until a clear solution was obtained
Assay type: physicochemical
Conditions: for solubility: thermodynamic from solid, distilled water, weight in mg divided by volume of the clear solution in mL
Description: Measurement of the water solubility of the test compounds is accomplished by using methods well known to those skilled in the art. Specifically, to a weighed amount of the test compound of the example compound Formula I (Ib) distilled water was added in small proportions until a clear solution was obtained. The total volume of the solution is measured. The water solubility is calculated by dividing the weight of the salt, in milligrams (mg), by the volume of the solution, in mL. […] The compound of Formula I (Ib) is therefore, at least 368 times more soluble in water than EPA itself. This is a clear indication of an unexpectedly high degree of bioavailability of the compositions of the invention. Highly water soluble medicinal preparations, when administered orally, result in efficient absorption from the gastrointestinal tract in to systemic circulation. Furthermore, water soluble preparations are especially suitable for parenteral administration.

Row | solubility | times more soluble in water than EPA (ratio of water solubility versus EPA) | Structure (SMILES)
1 | < 0.2 mg/mL |  | CC/C=C\C/C=C\C/C=C\C/C=C\C/C=C\CCCC(=O)O [EPA, Eicosapentaenoic Acid, reference compound]
2 | 68.6 mg/mL | at least 368 times | CC/C=C\C/C=C\C/C=C\C/C=C\C/C=C\CCCC(=O)OCC1OC(O)(CO)C(O)C1O (stereo not drawn) [Formula I (Ib)]
